Measurements as given in patent publication US5736557A, “N,N-bis (quinolin-4-yl)-diamine derivatives, their preparation and their use as antimalarials” (Hoffman-La Roche, Inc., priority 1994, dated 1998).
Converted amounts (≈) assume the structure as drawn. Like-named read-outs stand apart in the source and are kept apart here.

Assays:
Plasmodium berghei = assay: Activity against Plasmodium berghei in vivo in mice; design: species or system Plasmodium berghei (strain ANKA) in mice; details: mice; for inhibition in vivo at 10 mg/kg: percentage parasitemia reduction; for ED50: single peroral administration, read-out: ED50 po
Procedure: Test Method for the Determination of the Activity Against Plasmodium berghei in vivo
The preparations are tested on mice infected with malaria pathogens (Plasmodium berghei). Male albino mice (IBM:MORO(SPF), FUELLINSDORF) weighing about 25 g are used as the test animals. They are kept in climatized rooms at 21°-22° C. in groups of 5 animals per cage. They receive ad libitum a diet feed with a low PABA content (NAFAG FUTTER .COPYRGT. No. 9009 PAB-45, PABA content 45 mg/kg) and drinking water. On the first day of the test (DO) the test animals are infected with Plasmodium berghei (strain ANKA). For this there is used heparinized blood of a donor mouse with about 30% parasitemia, which is diluted with physiological saline such that it contains 10^8 parasitized erythrocytes per ml. 0.2 ml of this suspension is injected intravenously (i.v.) into the mice to be treated and into the control mice. In untreated control animals the parasitemia normally reaches 30-40% on the third day after the infection (D+3) and the test animals die between days +5 and +7.
The substances to be tested are dissolved or suspended in distilled water or in a mixture of 7% Tween 80, 3% alcohol (96%) and water. Usually, 0.25 ml of this solution or suspension is administered once subcutaneously and perorally to groups of 5 test animals. Treatment is effected 24 hours after the infection. 10 control animals are treated in the same manner with solvent or suspension medium per test.
All substances are tested in a first test in a single dosage of 10 mg/kg. Only those substances which in this test (10 mg/kg) have shown a parasitaemia reduction of 90% are used for the titration. Suitable dilutions of the test substance can be used to obtain an accurate titration of the activity.
48 hours after the treatment (D+3) blood smears are prepared from all animals using blood from tail veins and are stained with giemsa. The average erythrocyte infection rate (parasitemiea in %) in the control groups as well as in the groups which have been treated with the test compounds is determined by counting under a microscope. The difference in the average values of the infection rates of control group (100%) and treated groups is calculated and expressed as a percentage reduction (GI%). The ED50 or ED90 is determined mathematically by means of the JMP programme (nonlinear fit). The ED50 (ED90) in mg/kg is that dose which after single administration reduces the average erythrocyte infection rate by 50% (90%) in comparison to the control group.

[1] = test system: chloroquine-sensitive strains of the human-pathogenenic Plasmodium falciparum; assay: Growth inhibition of chloroquine-sensitive Plasmodium falciparum strains in vitro; assay type: cell-based
Procedure: (§1) Test Method for the Determination of the Activity Against Plasmodium falciparum in vitro
(§2) The preparations are tested on intraerythrocytary stages of Plasmodium falciparum from asynchronous cultures according to the method of Desjardin et al. (Desjardins, R. E. et al: Quantitative assessment of antimalarial activity in vitro by a semiautomated microdilution technique. Antimicrob. Agents Chemother. 16, 710-718, (1979)).
(§3) The culture medium consists of RPMI 1640 with the addition of 25 mM HEPES, 25 mM NaHCO3, 100 μg/ml neomycin and […] (A^+). Human-A^+ erythrocytes are used as the Plasmodium falciparum host cells. The parasites are maintained at 37° C. in an atmosphere of 3% O2, 4% CO2, 9:3% N2 and 95% relative humidity.
(§4) In order to determine the activity, the preparations are dissolved in dimethyl sulphoxide, pre-diluted in the culture medium to a suitable starting concentration and subsequently titrated-out on to microtitre plates in the 2nd stage over 6-7 steps. After the addition of the parasite culture (0.7% parasitemia in 2.5% erythrocyte suspension) the test plates are incubated under the conditions given above for 48 h-72 h. The parasite growth in the different preparation concentrations is determined using [G--^3 H]-hypoxanthin incorporation compared to untreated control cultures on the same test plates. The 50% growth inhibition (IC50) is calculated according to logit regression analysis from the resulting dosage-activity curve.
(§5) The preparations are tested on at least one chloroquine-resistant and one chloroquine-sensitive Plasmodium falciparum strain. Additional sensitive and resistant strains are included for futher characterization.

[2] = test system: chloroquine-resistant strains of the human-pathogenic Plasmodium falciparum; assay: Growth inhibition of chloroquine-resistant Plasmodium falciparum strains in vitro; assay type: cell-based; details: for IC50: Plasmodium falciparum; for Resistance index: ratio of average IC50 values for resistant strains and average values for sensitive strains
Procedure: as §1, §2, §3, §4, §5

[3] = po, single peroral dose 10 mg/kg, read-out: GI % at 10 mg/kg po
[4] = sc, single subcutaneous dose 10 mg/kg, read-out: GI % at 10 mg/kg sc
[5] = HB3, strain HB3, chloroquine-sensitive, read-out: IC50 growth inhibition
[6] = NF54, strain NF54, chloroquine-sensitive, read-out: IC50 growth inhibition
[7] = strain FCH5C2, chloroquine-sensitive, read-out: IC50 growth inhibition
[8] = strain RFMEF3, chloroquine-sensitive, read-out: IC50 growth inhibition
[9] = strain Ro73, chloroquine-sensitive, read-out: IC50 growth inhibition
[10] = read-out: IC50 growth inhibition, strain 7G8, chloroquine-resistant
[11] = read-out: IC50 growth inhibition, strain Indo, chloroquine-resistant
[12] = read-out: IC50 growth inhibition, strain ItG2F6, chloroquine-resistant
[13] = read-out: IC50 growth inhibition, strain K1, chloroquine-resistant
[14] = read-out: IC50 growth inhibition, strain RFCF3, chloroquine-resistant
[15] = read-out: IC50 growth inhibition, strain W2, chloroquine-resistant
[16] = read-out: IC50 growth inhibition, strain W2 Mef, chloroquine-resistant

Compound | inhibition in vivo at 10 mg/kg (Plasmodium berghei; [3]) [%] | ED50 (Plasmodium berghei; po) [mg/kg] | inhibition in vivo at 10 mg/kg (Plasmodium berghei; [4]) [%] | IC50 [1, 5] [ng/mL] | IC50 [1, 6] [ng/mL] | IC50 [1, 7] [ng/mL] | IC50 [1, 8] [ng/mL] | IC50 [1, 9] [ng/mL] | IC50 [2, 10] [ng/mL] | IC50 [2, 11] [ng/mL] | IC50 [2, 12] [ng/mL] | IC50 [2, 13] [ng/mL] | IC50 [2, 14] [ng/mL] | IC50 [2, 15] [ng/mL] | IC50 [2, 16] [ng/mL] | Resistance index [2] | IC50 ([1]; NF54, read-out: IC50 growth inhibition, strain NF54, chloroquine-sensitive) [ng/mL] | IC50 ([1]; read-out: IC50 growth inhibition, strain Ro73, chloroquine-sensitive) [ng/mL]
Clc1ccc2c(NCc3ccc(CNc4ccnc5cc(Cl)ccc45)cc3)ccnc2c1 [Example 3, (7-Chloroquinolin-4-yl)-[4-(7-chloroquinolin-4-yl-aminomethyl)-benzyl]-amine] | 99.9 | 2.5 | 99.9 | 4.6 (≈ 0.01 µM) | 9.6 (≈ 0.0209 µM) | 12.7 (≈ 0.0276 µM) | 12.5 (≈ 0.0272 µM) | 7.4 (≈ 0.0161 µM) | 6.8 (≈ 0.0148 µM) | 2.9 (≈ 0.00631 µM) | 7.9 (≈ 0.0172 µM) | 9.1 (≈ 0.0198 µM) | 5.7 (≈ 0.0124 µM) | 5 (≈ 0.0109 µM) | 9.7 (≈ 0.0211 µM) | 0.7 |  | 
Clc1ccc2c(N[C@H]3CC[C@H](Nc4ccnc5cc(Cl)ccc45)CC3)ccnc2c1 [Example 4, ±-trans-N,N'-Bis-(7-chloroquinolin-4-yl)-cyclohexane-1,4-diamine] | 73 |  | 37 | 3.3 (≈ 0.00755 µM) | 7.2 (≈ 0.0165 µM) | 3.6 (≈ 0.00823 µM) | 3.3 (≈ 0.00755 µM) | 1.6 (≈ 0.00366 µM) | 2.8 (≈ 0.0064 µM) | 6 (≈ 0.0137 µM) | 5.3 (≈ 0.0121 µM) | 11.6 (≈ 0.0265 µM) | 9.5 (≈ 0.0217 µM) | 13.1 (≈ 0.03 µM) | 7 (≈ 0.016 µM) | 2.1 |  | 
Clc1ccc2c(N[C@H]3CC[C@@H](Nc4ccnc5cc(Cl)ccc45)CC3)ccnc2c1 [Example 5, cis-N,N'-Bis-(7-chloroquinolin-4-yl)-cyclohexane-1,4-diamine] | 98 | 1.5 | 99.9 | 3.2 (≈ 0.00732 µM) | 2.6 (≈ 0.00594 µM) | 3.9 (≈ 0.00892 µM) | 3.4 (≈ 0.00777 µM) | 2.3 (≈ 0.00526 µM) | 9 (≈ 0.0206 µM) | 4.4 (≈ 0.0101 µM) | 6.8 (≈ 0.0155 µM) | 7.7 (≈ 0.0176 µM) | 5.1 (≈ 0.0117 µM) | 4.8 (≈ 0.011 µM) | 6.5 (≈ 0.0149 µM) | 2.1 |  | 
Clc1ccc2c(N[C@@H]3CCC[C@H](Nc4ccnc5cc(Cl)ccc45)C3)ccnc2c1 [Example 6, cis-N,N'-Bis-(7-chloroquinolin-4-yl)-cyclohexane-1,3-diamine] | 98 | 1.7 | 99.9 | 5.2 (≈ 0.0119 µM) |  | 6.4 (≈ 0.0146 µM) | 4.8 (≈ 0.011 µM) |  | 3.8 (≈ 0.00869 µM) | 3 (≈ 0.00686 µM) | 4.1 (≈ 0.00937 µM) | 4.4 (≈ 0.0101 µM) | 4.2 (≈ 0.0096 µM) | 4 (≈ 0.00915 µM) | 7.6 (≈ 0.0174 µM) | 1.0 | 3.8 (≈ 0.00869 µM) | 3 (≈ 0.00686 µM)
C[C@H]1[C@@H](Nc2ccnc3cc(Cl)ccc23)CCC[C@H]1Nc1ccnc2cc(Cl)ccc12 [Example 8, cis,cis-N,N'-Bis-(7-chloroquinolin-4-yl)-2-methyl-cyclohexane-1,3-diamine] | 66 |  | 67 | 6.1 (≈ 0.0135 µM) | 7.7 (≈ 0.0171 µM) | 6.1 (≈ 0.0135 µM) | 6.3 (≈ 0.014 µM) | 1.6 (≈ 0.00354 µM) | 9.4 (≈ 0.0208 µM) | 6.4 (≈ 0.0142 µM) | 6.4 (≈ 0.0142 µM) | 8.8 (≈ 0.0195 µM) | 4.6 (≈ 0.0102 µM) | 5.6 (≈ 0.0124 µM) | 9.1 (≈ 0.0202 µM) | 1.3 |  | 
Clc1ccc2c(Nc3cccc(Nc4ccnc5cc(Cl)ccc45)c3)ccnc2c1 [Example 9, N,N'-Bis-(7-Chloroquinolin-4-yl)-phenylene-1,3-diamine] | 86 |  | 83 | 9.5 (≈ 0.022 µM) | 23.7 (≈ 0.0549 µM) | 15.6 (≈ 0.0362 µM) | 10.8 (≈ 0.025 µM) | 10.4 (≈ 0.0241 µM) | 17.1 (≈ 0.0396 µM) | 7.7 (≈ 0.0179 µM) | 12.9 (≈ 0.0299 µM) | 17.1 (≈ 0.0396 µM) | 12.5 (≈ 0.029 µM) | 12.1 (≈ 0.0281 µM) | 12.1 (≈ 0.0281 µM) | 0.9 |  | 
Clc1ccc2c(NCC3CCCC(CNc4ccnc5cc(Cl)ccc45)C3)ccnc2c1 (stereo not drawn) [Example 11, (7-Chloroquinolin-4-yl)-[3-(7-chloroquinolin-4-yl-aminomethyl)-cyclohexylmethyl]-amine] | 28 |  | 99.6 | 12.7 (≈ 0.0273 µM) | 17.2 (≈ 0.037 µM) | 14.5 (≈ 0.0312 µM) | 16.8 (≈ 0.0361 µM) | 4.9 (≈ 0.0105 µM) | 20.5 (≈ 0.044 µM) | 14.4 (≈ 0.0309 µM) | 11.6 (≈ 0.0249 µM) | 17.8 (≈ 0.0382 µM) | 14.1 (≈ 0.0303 µM) | 9.9 (≈ 0.0213 µM) | 15.9 (≈ 0.0342 µM) | 1.1 |  | 
